Laboratory results as given in ChEMBL document CHEMBL1201862, “PubChem BioAssay data set” (2004).
Several values for one entry are separate records, joined by “and”; a condition that tells them apart may be missing. Equal values may be shown once.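 1) Cells in 96-well plates. 2) Compound, 48 h, 5 concentrations. 3) Linear interpolation between surrounding doses. 4) Unreached endpoint = highest concentration. The concentration for 50% growth inhibition is given as GI50.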 Activity calls are given as the source filed them. Cut-off read from the data, not from the text of the source: active = GI50 up to about 1.1 µM and inactive = higher.

Key:
Assay in all cases: NCI tumour cell line growth inhibition, 48 h
OVCAR-3 = system: OVCAR-3
A498 = system: A498
HCT-15 = system: HCT-15
786-0 = system: 786-0
NCI-H460 = system: NCI-H460
A549 = system: A549
COLO 205 = system: COLO 205
MCF7 = system: MCF7
BT-549 = system: BT-549
SK-MEL-28 = system: SK-MEL-28
SF-295 = system: SF-295
EKVX = system: EKVX
HL-60 = system: HL-60
OVCAR-8 = system: OVCAR-8
SNB-75 = system: SNB-75
TK-10 = system: TK-10
HCC 2998 = system: HCC 2998
CCRF-CEM = system: CCRF-CEM
MDA-MB-435 = system: MDA-MB-435
SNB-19 = system: SNB-19

| SMILES | GI50 (OVCAR-3) | GI50 (A498) | GI50 (HCT-15) | GI50 (786-0) | GI50 (NCI-H460) | GI50 (A549) | GI50 (COLO 205) | GI50 (MCF7) | GI50 (BT-549) | GI50 (SK-MEL-28) | GI50 (SF-295) | GI50 (EKVX) | GI50 (HL-60) | GI50 (OVCAR-8) | GI50 (SNB-75) | GI50 (TK-10) | GI50 (HCC 2998) | GI50 (CCRF-CEM) | GI50 (MDA-MB-435) | GI50 (SNB-19) |
| --- | --- | --- | --- | --- | --- | --- | --- | --- | --- | --- | --- | --- | --- | --- | --- | --- | --- | --- | --- | --- |
| O=C(O)c1cnc2cc(OCc3ccccc3)ccc2c1O | 20.7 µM (inactive) | 17.6 µM (inactive) | 17.8 µM | 18.5 µM (inactive) | 19.4 µM (inactive) | 19.5 µM (inactive) | 18.2 µM (inactive) | 20.1 µM (inactive) | 18.4 µM (inactive) | 16 µM (inactive) | 19.3 µM (inactive) | 22.8 µM (inactive) | 0.256 µM (active) | 19 µM (inactive) | 15.7 µM (inactive) | 19.9 µM (inactive) | 18.3 µM (inactive) | 5.37 µM (inactive) | 16.2 µM (inactive) | 17.7 µM (inactive) |
| CN(CC(=O)O)Cc1oc(CO)cc(=O)c1O | > 100 µM (inactive) | > 100 µM (inactive) | > 100 µM | > 100 µM (inactive) | > 100 µM (inactive) | > 100 µM (inactive) | > 100 µM (inactive) | > 100 µM (inactive) | > 100 µM (inactive) | > 100 µM (inactive) | > 100 µM (inactive) | > 100 µM (inactive) | 30 µM (inactive) | > 100 µM (inactive) | > 100 µM (inactive) | > 100 µM (inactive) | > 100 µM (inactive) | > 100 µM (inactive) | > 100 µM (inactive) | > 100 µM (inactive) |
| CC(=O)Oc1c(OC(C)C)cc(=O)n2ccsc12 | 78.2 µM (inactive) | > 100 µM (inactive) | > 100 µM | > 100 µM (inactive) | > 100 µM (inactive) | > 100 µM (inactive) | 30.1 µM (inactive) | 52.6 µM (inactive) | > 100 µM (inactive) | > 100 µM (inactive) | > 100 µM (inactive) | > 100 µM (inactive) | 18.5 µM (inactive) | > 100 µM (inactive) | > 100 µM (inactive) | > 100 µM (inactive) | > 100 µM (inactive) | 16.1 µM (inactive) | 17.3 µM (inactive) | > 100 µM (inactive) |
| O=C(C1OC1c1ccc([N+](=O)[O-])cc1)C12CC3CC(CC(C3)C1)C2 (stereo not given) | 13.7 µM (inactive) | 20.9 µM (inactive) | 13.2 µM | 9.98 µM (inactive) | 13.6 µM (inactive) | 25.7 µM (inactive) | 19.2 µM (inactive) | 13.3 µM (inactive) | 23.8 µM (inactive) | 17.6 µM (inactive) | 12.3 µM (inactive) | 18.8 µM (inactive) | 3.46 µM (inactive) | 16.6 µM (inactive) | 19.1 µM (inactive) | 18.1 µM (inactive) | 20.7 µM (inactive) | 2.79 µM (inactive) | 12.3 µM (inactive) | 17.5 µM (inactive) |
| COc1cc([C@H]2OC[C@H]3[C@@H]2CO[C@@H]3c2cc(OC)c3c(c2)OCO3)cc(OC)c1OC | 87.1 µM (inactive) | > 100 µM (inactive) | 34.4 µM and 39.8 µM | > 100 µM (inactive) | 33.7 µM (inactive) and 33.9 µM (inactive) | 46 µM (inactive) and 55.2 µM (inactive) | 48.3 µM (inactive) and 42.5 µM (inactive) | 60.5 µM (inactive) and 50.5 µM (inactive) | 31.6 µM (inactive) and 52.1 µM (inactive) | > 100 µM (inactive) | 48.1 µM (inactive) and 47.9 µM (inactive) | 39.4 µM (inactive) and 40.9 µM (inactive) | 40 µM (inactive) and > 10 µM (inactive) | 31.3 µM (inactive) and 49.3 µM (inactive) | 46.6 µM (inactive) and 84.5 µM (inactive) | > 100 µM (inactive) | 56 µM (inactive) and 27.9 µM (inactive) | 45.9 µM (inactive) and > 10 µM (inactive) | 76 µM (inactive) | 53.6 µM (inactive) and 43.8 µM (inactive) |
| N#CCc1nc(Cc2ccccc2)n[nH]1 | > 100 µM (inactive) | > 100 µM (inactive) | > 100 µM | > 100 µM (inactive) | > 100 µM (inactive) | > 100 µM (inactive) | > 100 µM (inactive) | > 100 µM (inactive) | > 100 µM (inactive) | > 100 µM (inactive) | > 100 µM (inactive) | > 100 µM (inactive) | > 100 µM (inactive) | > 100 µM (inactive) | > 100 µM (inactive) | > 100 µM (inactive) | > 100 µM (inactive) | > 100 µM (inactive) | > 100 µM (inactive) | > 100 µM (inactive) |
| COc1ccc(/C(CC2OC(=O)c3ccccc32)=N\NC(=O)C[N+](C)(C)C)cc1 (stereo not given) | 30.3 µM (inactive) | 24.3 µM (inactive) | 19.2 µM | 23.6 µM (inactive) | 24.6 µM (inactive) | 36 µM (inactive) | 27.5 µM (inactive) | 42 µM (inactive) | 21.5 µM (inactive) | 19.7 µM (inactive) | 47.5 µM (inactive) | 39.4 µM (inactive) | 33.4 µM (inactive) | 19.5 µM (inactive) | 27.7 µM (inactive) | 33.4 µM (inactive) | 16.3 µM (inactive) | 25.1 µM (inactive) | 24.3 µM (inactive) | 29.5 µM (inactive) |
| C=C(O)c1ccccc1C#Cc1ccccc1C(=O)OC | > 10 µM (inactive) | > 10 µM (inactive) | > 10 µM | > 10 µM (inactive) | > 10 µM (inactive) | > 10 µM (inactive) | > 10 µM (inactive) | > 10 µM (inactive) | > 10 µM (inactive) | > 10 µM (inactive) | > 10 µM (inactive) | > 10 µM (inactive) | > 10 µM (inactive) | > 10 µM (inactive) | 3.66 µM (inactive) | > 10 µM (inactive) | > 10 µM (inactive) | > 10 µM (inactive) | > 10 µM (inactive) | > 10 µM (inactive) |
| S=C1SSC2N=CC=CC12 (stereo not given) | > 100 µM (inactive) | 29.9 µM (inactive) | 57.8 µM | > 100 µM (inactive) | 31.4 µM (inactive) | 47.1 µM (inactive) | > 100 µM (inactive) | 36.7 µM (inactive) | > 100 µM (inactive) | > 100 µM (inactive) | 84.9 µM (inactive) | > 100 µM (inactive) | 40.5 µM (inactive) | > 100 µM (inactive) | > 100 µM (inactive) | > 100 µM (inactive) | 24.7 µM (inactive) | 5.66 µM (inactive) | 17.3 µM (inactive) | > 100 µM (inactive) |
| COc1ccc2c(c1)C=C([N+](=O)[O-])C(C1OC(C)(C)OC1C1COC(C)(C)O1)O2 (stereo not given) | 8.69 µM (inactive) | 18 µM (inactive) | 1.95 µM | 12.8 µM (inactive) | 3.64 µM (inactive) | 18 µM (inactive) | 10.8 µM (inactive) | 2.54 µM (inactive) | 2.74 µM (inactive) | 1.74 µM (inactive) | 7.89 µM (inactive) | 13.8 µM (inactive) | 1.86 µM (inactive) | 2.85 µM (inactive) | 14.5 µM (inactive) | 18.4 µM (inactive) | 13.3 µM (inactive) | 0.386 µM (active) | 3.06 µM (inactive) | 11.9 µM (inactive) |
| CC1CN1C(=O)NCCCCCCNC(=O)N1CC1C (stereo not given) | > 100 µM (inactive) | > 100 µM (inactive) | > 100 µM | 51.6 µM (inactive) | 2.61 µM (inactive) | 31.1 µM (inactive) | > 100 µM (inactive) | 70.3 µM (inactive) | > 100 µM (inactive) | > 100 µM (inactive) | 54.3 µM (inactive) | > 100 µM (inactive) | 11.9 µM (inactive) | 69 µM (inactive) | 62.7 µM (inactive) | > 100 µM (inactive) | > 100 µM (inactive) | 14.7 µM (inactive) | > 100 µM (inactive) | > 86.7 µM (inactive) |
| O=C1C=CC[C@H](/C=C/C[C@@H](O)C[C@H](O)/C=C/c2ccccc2)O1 | 11.5 µM (inactive) | 14.1 µM (inactive) | 10.5 µM | 16.1 µM (inactive) | 15.3 µM (inactive) | 15.8 µM (inactive) | 7.87 µM (inactive) | 12.4 µM (inactive) | 10.8 µM (inactive) | 16.7 µM (inactive) | 15.7 µM (inactive) | 12 µM (inactive) | 3.56 µM (inactive) | 14.4 µM (inactive) | 13.6 µM (inactive) | 11.7 µM (inactive) | 2.28 µM (inactive) | 3.74 µM (inactive) | 11.3 µM (inactive) | 19.2 µM (inactive) |
| OCCNCNc1nc(NCNCCO)nc(N(CNCCO)CNCCO)n1 | 22.6 µM (inactive) | 28.1 µM (inactive) | 25.2 µM | 17.7 µM (inactive) | 21.9 µM (inactive) | 27.2 µM (inactive) | 15.7 µM (inactive) | 28.1 µM (inactive) | 21.1 µM (inactive) | 24.4 µM (inactive) | 30.6 µM (inactive) | 25.3 µM (inactive) | 20.5 µM (inactive) | 24.3 µM (inactive) | 24.7 µM (inactive) | 28.8 µM (inactive) | 18.9 µM (inactive) | 12.2 µM (inactive) | 18.2 µM (inactive) | 17.1 µM (inactive) |
| O=C1c2ccccc2S(=O)(=O)c2ccccc21 | > 100 µM (inactive) | > 100 µM (inactive) | > 100 µM | > 100 µM (inactive) | > 100 µM (inactive) | > 100 µM (inactive) | > 100 µM (inactive) | > 100 µM (inactive) | > 100 µM (inactive) | > 100 µM (inactive) | > 100 µM (inactive) | 61.1 µM (inactive) | > 100 µM (inactive) | > 100 µM (inactive) | > 100 µM (inactive) | > 100 µM (inactive) | > 100 µM (inactive) | > 100 µM (inactive) | > 100 µM (inactive) | > 100 µM (inactive) |
